Measurements taken from publication PMC3006207, “Phosphorylation-Dependent Protein Interaction with Trypanosoma brucei 14-3-3 Proteins that Display Atypical Target Recognition” (PLoS ONE, 2010).

Columns and labels:
GST-I K77E +II K56E = test: NC-filter binding assay, mutant heterodimer; parameters: species or system Trypanosoma brucei
Description: I K77E: 5′-[…]-3′, 5′-[…]-3′; and II K56E: 5′-[…]-3′, 5′-[…]-3′. The sequences were confirmed.
(§1) Five µl of 1 mM biotinylated peptides, purchased from Scrum (Japan) were mixed with 15 µl of streptavidine (1 mg/ml) in the presence of 0.1% Tween20, spotted on NC-filters and dried. Filters were washed with TTBS, blocked with Protein-Free Blocking Buffer (Pierce), and then incubated with GST-14-3-3 proteins in TTBS containing 20% Protein-Free Blocking Buffer and 1 mM DTT. The filters were extensively washed four times with TTBS, and detected with anti-GST antibodies.

[1] = tested on: heterodimeric T. brucei 14-3-3I+II; test: NC-filter binding assay, heterodimeric T. brucei 14-3-3; parameters: species or system Trypanosoma brucei; details: biotinylated peptide + streptavidine on nitrocellulose filter; GST-14-3-3 detected with α-GST antibodies
Description: as §1

human 14-3-3ζ = test: NC-filter binding assay, human 14-3-3ζ
Description: as §1

T. brucei 14-3-3II = test: Surface plasmon resonance (BIAcore), phosphopeptide vs 14-3-3II; assay type: binding, Trypanosoma brucei; details: 200 nM GST-14-3-3II; peptide 296 RU on SA5 chip; HBS-EP buffer
Description: (§2) The surface plasmon resonance measurement was carried out using BIAcore 2000. A resonance unit value of 220 of biotinylated phosphopeptide pSRaf 259 (biotin-MAGGGRQRSTpSTPN) (mode 1 peptide) was coupled to a streptavidin-coated sensor chip (SA5, BIAcore). In the next step, 200 nM each of purified GST-14-3-3I, GST-14-3-3II, and GST–14-3-3τ, or 500 nM each of MBP-14-3-3I, MBP-14-3-3II, and MBP-14-3-3τ in HBS-EP buffer (BIAcore) was injected at a flow rate of 20 µl/min. A resonance unit value of 296 of biotinylated mode 2 peptide (biotin-MAGGGRLYHpSLP) was also coupled to SA5 and 200 nM each of GST-14-3-3I, GST-14-3-3II and GST-14-3-3τ in HBS-EP buffer, and was injected in the same manner.

T. brucei 14-3-3I = test: Surface plasmon resonance (BIAcore), phosphopeptide vs 14-3-3I; assay type: binding, Trypanosoma brucei; details: 200 nM GST-14-3-3I; peptide 296 RU on SA5 chip; HBS-EP buffer
Description: as §2

human 14-3-3τ = target: T1, human 14-3-3τ (Homo sapiens, UniProt P27348); test: Surface plasmon resonance (BIAcore), phosphopeptide vs 14-3-3τ; assay type: binding; details: 200 nM GST-14-3-3τ; peptide 296 RU on SA5 chip; HBS-EP buffer
T1 construct: made in house
T1 sequence (P27348 1-245): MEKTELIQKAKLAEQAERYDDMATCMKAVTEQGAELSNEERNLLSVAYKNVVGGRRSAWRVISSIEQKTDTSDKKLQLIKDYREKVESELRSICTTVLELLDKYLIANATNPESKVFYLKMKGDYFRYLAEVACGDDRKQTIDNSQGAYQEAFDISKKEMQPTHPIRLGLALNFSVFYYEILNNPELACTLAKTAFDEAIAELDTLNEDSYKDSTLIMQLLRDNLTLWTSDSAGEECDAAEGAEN
Description: as §2

T. brucei GST-II +I = test: Far-Western blot of immunoprecipitated V5-tagged proteins, probe GST-II +I; assay type: binding, Trypanosoma brucei; details: protein expressed in HEK293T cells, immunoprecipitated with anti-V5
From the text: (§3) We first examined whether a putative protein phosphatase 2c (PP2c) in the list interacts with T. brucei 14-3-3 proteins, since the phenotype of knockdown of 14-3-3I and/or II resembled that of okadaic acid, a potent serine/threonine phosphatase inhibitor, -treated T. brucei cells and PP2c has a putative mode 3 motif. The N-terminally V5-tagged PP2c protein was expressed in human HEK293T cells and purified by immunoprecipitation using anti-V5 monoclonal antibody (Ab). Far-WB probing with GST-14-3-3 proteins was used to detect the direct interaction. We have recently identified the heterodimeric form as the major form of T. brucei 14-3-3 proteins (unpublished data) and thus, recombinant heterodimeric GST-II +I was used as a probe. […] We further confirmed that the binding was mediated by intact mode 3 motif (Figure 2B).
(§4) Figure 2 Interaction of T. brucei PP2c with T. brucei and human 14-3-3 proteins. (A) and (B) Mammalian expression vectors pCR3 N-V5-PP2c, –PP2c S744A or -C-terminal mutants of PP2c were transiently transfected to HEK293T cells. […] The filters were then incubated with indicated GST-14-3-3 proteins and detected with α-GST antibodies. […]
(§5) Figure 3 p31-SAP binds to T. brucei 14-3-3 proteins in vivo (PCF cells). […] Immunoprecipitated proteins were analyzed by Far-WB with GST-II + I as a probe (upper panel). […]

[2] = tested on: endogenous 14-3-3I and II; test: Co-immunoprecipitation with α-V5 Ab in T. brucei PCF cells; assay type: cell-based, Trypanosoma brucei; details: Tet-inducible T. brucei PCF clones; Western blot with mixture of α-I and α-II Ab
From the text: Figure 2 Interaction of T. brucei PP2c with T. brucei and human 14-3-3 proteins. (A) and (B) Mammalian expression vectors pCR3 N-V5-PP2c, –PP2c S744A or -C-terminal mutants of PP2c were transiently transfected to HEK293T cells. The cell lysates were subjected to immunoprecipitation with α-V5 Ab followed by far-Western blot analyses (Far-WB) using indicated probes (upper panel). Immunoprecipitated proteins were reprobed with α-V5 Ab (lower panel). (C) Modes 1-3 phosphopeptides summarized in Table 1 have far less affinity to T. brucei 14-3-3 than human 14-3-3ζ proteins. Indicated biotinylated phosphopeptides were mixed with streptavidine and spotted to nitrocellulose filters and dried. The filters were then incubated with indicated GST-14-3-3 proteins and detected with α-GST antibodies. (D) Tet-inducible T. brucei expression vector, pLew82 T7bsr-N-V5-PP2c was transfected and clones were isolated with blasticidin selection. Tet-uninduced (Tet−) or –induced (Tet +) cell lysates of the clone were subjected to immunoprecipitation followed by Western blotting using a mixture of α-I and II Ab (lower panel), and horseradish peroxidase (HRP)-labeled α-V5 Ab (upper panel).
as §5

human GST-14-3-3ζ = test: Far-Western blot of immunoprecipitated V5-tagged proteins, probe GST-14-3-3ζ; assay type: binding; details: protein expressed in HEK293T cells, immunoprecipitated with anti-V5
From the text: as §3
as §4, with “cells. The cell lysates were subjected to immunoprecipitation with α-V5 Ab followed by far-Western blot analyses (Far-WB) using indicated probes (upper panel). Immunoprecipitated proteins were reprobed with α-V5 Ab (lower panel).” for “cells.”

MGGGHVSGLKRRRpSV [synthetic mode 3 phosphopeptide derived from p31-SAP]
binding of mutant 14-3-3 to p31-SAP derived peptide (GST-I K77E +II K56E): prevent the binding to the p31-SAP derived peptide | interaction with spotted phosphopeptide [1]: clearly detected | affinity to p31-SAP derived phosphopeptide, human 14-3-3ζ vs T. brucei 14-3-3 (human 14-3-3ζ; NC-filter, relative to T. brucei 14-3-3): slightly higher affinity to the p31-SAP derived phosphopeptide than T. brucei 14-3-3 | interaction with spotted phosphopeptide (human 14-3-3ζ; biotinylated peptide + streptavidine on nitrocellulose filter, GST-14-3-3ζ detected with α-GST antibodies): interacts with both phosphopeptides but with the preferential binding to the mode 3 peptide derived from p31-SAP

biotin-MAGGGRLYHpSLP [mode 2 phosphopeptide, biotinylated mode 2 peptide (biotin-…pSLP)]
binding pattern of the sensorgram, mode 2 (T. brucei 14-3-3II): neither GST-14-3-3I nor GST–14-3-3II showed any binding | binding pattern of the sensorgram, mode 2 (T. brucei 14-3-3I): neither GST-14-3-3I nor GST–14-3-3II showed any binding | binding pattern of the sensorgram, mode 2 (human 14-3-3τ): bound to the mode 2 phosphopeptide

B1: V5-tagged PP2c: N-terminally V5-tagged putative T. brucei protein phosphatase 2c (Tb927.7.4020) (protein)
chain: MYTSVRKPPLSTAKLSEKTDAAGKGNLNGVAESPTSRDGGIGSSMPYVARKPNSGDGQGRPGEVQRAGQVTYQTTNALFTGSTVPGKTKDVSTAKSSGGGDHLNNGDRPPLVGDNNEVSSPRTIKMNSSPPRRYFHRGAINCNSSENVAAVLGGSTLISGERVGSGSGYPRRVFSGPPSTRMLNQGGEEPAQKPQPPGSSRSKSGIRQLQFALNGNSSQRLLPVPPRQLCPSNPARRGGGAATVTPRCSDARRQKQDSTDPFDMTQVLNGVGTQLGLPSYCPGAESSQGSNRLRGSKPPSPSLLPLASLRSQQMPSTAGVPAPRSLSESQQLSINPSGVFGCATDCKNGLGYDFRVVASTGKSFNLPIKLTAGVGCVQGLRPTMEDEHFIRLQATTAVGQPVSLLGILDGHCGRRVAELAAKHVPDNFIAHPALGENNALAFVESIIQADRAIFHSIGKGSGGVGLSAGFGGSGGSTLIAAAVHGRMLYVACLGDARAVLYDGNTTIPMSEDHKPLNKKEHTRILQCGGFVQLGRVCGVLAVSRALGDYEFKFNGNRFISNRELMVSNVADVRQINLTDSSKFLLLACDGLWDAVQNEEATQFVRDFLSYTPDVGSSPEATKRAINNCCQKLAEFAVSRGSTDNVSVMLLFFHNVADVVASFDRASDATTSRATVTSPVSPRLFSASRGVNAGFTGMESRLAGISGGSSSGAFGGSSGAEGSSVRGAGRTKVDRGASWLTRSRSLW
modifications: left off: V5, N-terminal, kept
direct binding by Far-WB (T. brucei GST-II +I): to T. brucei GST-II +I (heterodimerized recombinant proteins) with lower affinity | co-immunoprecipitation with 14-3-3I and II [2]: failed to show the interaction of 14-3-3 with PP2c | direct binding by Far-WB (human GST-14-3-3ζ): directly bound to GST-14-3-3ζ with high affinity
